Results published in patent US10968232B2 (Merck Sharp & Dohme Corp., priority 2016, dated 2021).

Each compound was assayed against T1, human GPR40 (Homo sapiens, UniProt O14842) (assay: Inositol Phosphate Turnover (IP1) Assay). Conditions: HEK cells stably expressing human GPR40; CisBio IP-One kit; 60 minutes at 37 degrees; read-out: Human IP1 EC50.
T1 construct: expressed in transfected cells
Format: cell-based
Experimental: Human GPR40 stable cell-lines were generated in HEK cells. The expression plasmids were transfected using lipofectamine (Life Technologies) following manufacturer's instructions. Stable cell-lines were generated following drug selection and single cell cloning. The assay was performed in 384-well format. HEK cells stably expressing human GPR40 were plated at 7500 cells per well in growth medium (DMEM/10% fetal calf serum). Cell plates were then incubated 16 hours at 37 degrees in a 5% CO2 incubator. Measurement of Inositol Phosphate Turnover (IP1) was performed using the CisBio IP-One kit (Part number 62IPAPEB). After the 16 hour incubation, the growth media was removed by centrifugation using the BlueWasher (AusWasher GUI Ver. v1.0.1.8) Protocol #21-“Light Dry” and 10 ul of stimulation buffer (prepared as described in the kit) was added to each well. In a separate plate, compounds were diluted in DMSO (200-fold over the final concentration in the assay well) and 50 nl was acoustically transferred to the appropriate well in the assay cell plate. The plates were then incubated for 60 minutes at 37 degrees in a 5% CO2 incubator. 10 ul of detection buffer (also prepared as described in the IP-One kit) was added to each well and the plates were incubated at room temperature for 60 minutes in the dark. The plates were then read in a Perkin Elmer EnVision or equivalent reader able to measure FRET. […] Data was normalized to % activity using a reference compound and EC50s determined using a standard 4-parameter fit.

T1 sequence (O14842 whole entry): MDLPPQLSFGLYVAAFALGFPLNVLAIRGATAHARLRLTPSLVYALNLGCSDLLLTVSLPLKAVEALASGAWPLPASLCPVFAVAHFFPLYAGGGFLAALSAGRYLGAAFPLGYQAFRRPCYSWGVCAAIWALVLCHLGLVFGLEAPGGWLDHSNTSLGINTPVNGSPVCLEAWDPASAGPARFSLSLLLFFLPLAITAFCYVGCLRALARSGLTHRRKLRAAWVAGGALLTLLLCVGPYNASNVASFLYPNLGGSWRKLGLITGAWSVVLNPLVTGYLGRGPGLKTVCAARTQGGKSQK

SMILES | EC50 [nM]
C[C@H](C(=O)O)[C@H](c1ccc2c(c1F)OC1(CC2)CCN([C@H](C)c2cc(C(F)(F)F)ccc2Cl)CC1)C1CC1 (mixture of isomers) [Example 12, (2S,3R)-3-(1′-((RS)-1-(2-chloro-5-(trifluoro-methyl)phenyl)ethyl)-8-fluorospiro[chroman-2,4′-piperidin]-7-yl)-3-cyclopropyl-2-methylpropanoic acid] | 995
CC(c1cc(C(F)(F)F)ccc1F)N1CCC2(CCc3ccc([C@H](C4CC4)[C@H](C)C(=O)O)cc3O2)CC1 (mixture of isomers) [Example 28, (2S,3R)-3-cyclopropyl-3-(1′-((RS)-1-(2-fluoro-5-(trifluoromethyl)phenyl)ethyl)spiro[chroman-2,4′-piperidin]-7-yl)-2-methylpropanoic acid] | 11
CC(c1cc(OC(F)(F)F)ccc1F)N1CCC2(CCc3ccc([C@H](C4CC4)[C@H](C)C(=O)O)cc3O2)CC1 (mixture of isomers) [Example 29, (2S,3R)-3-cyclopropyl-3-(1′-((RS)-1-(2-fluoro-5-(trifluoromethoxy)phenyl)ethyl)spiro[chroman-2,4′-piperidin]-7-yl)-2-methylpropanoic acid] | 115
Cc1ccc(OC(F)(F)F)c(C(C)N2CCC3(CCc4ccc([C@H](C5CC5)[C@H](C)C(=O)O)cc4O3)CC2)c1 (mixture of isomers) [Example 112] | 21.5
Cc1cc(-c2ccc(OC(F)(F)F)c(C(C)N3CCC4(CCc5ccc([C@H](C6CC6)[C@H](C)C(=O)O)cc5O4)CC3)c2)n(C)n1 (mixture of isomers) [Example 114, (2S,3R)-3-cyclopropyl-3-(1′-((RS)-1-(5-(1,3-dimethyl-1H-pyrazol-5-yl)-2-(trifluoromethoxy)phenyl)eth-yl)spiro[chroman-2,4′-piperidin]-7-yl)-2-methylpropanoic acid] | 91.6
Cc1ccc(-c2ccc(OC(F)(F)F)c(C(C)N3CCC4(CCc5ccc([C@H](C6CC6)[C@H](C)C(=O)O)cc5O4)CC3)c2)o1 (mixture of isomers) [Example 122, (2S,3R)-3-cyclopropyl-2-methyl-3-(1′-((RS)-1-(5-(5-methylfuran-2-yl)-2-(trifluoromethoxy)phenyl)eth-yl)spiro[chroman-2,4′-piperidin]-7-yl)propanoic acid] | 42.5
C[C@H](C(=O)O)[C@H](c1ccc2c(c1)OC1(CC2)CCN([C@@H](C)c2nccnc2C(F)(F)F)CC1)C1CC1 (mixture of isomers) [Example 125, (2S,3R)-3-cyclopropyl-2-methyl-3-(1′-((RS)-1-(3-(trifluoromethyl)pyrazin-2-yl)ethyl)spiro[chroman-2,4′-piperidin]-7-yl)propanoic Acid] | 415
CC(c1cc(Cl)ccc1C(F)(F)F)N1CCC2(CCc3ccc([C@H](C4CC4)[C@H](C)C(=O)O)cc3O2)CC1 (mixture of isomers) [Example 5, (2S3R)-3-(1′-((RS)-1-(5-chloro-2-(trifluoromethyl)phenyl)ethyl)spiro[chroman-2,4′-piperidin]-7-yl)-3-cyclopropyl-2-methylpropanoic Acid] | 2.71
CC(c1cc(C(F)(F)F)ccc1C1CC1)N1CCC2(CCc3ccc([C@H](C4CC4)[C@H](C)C(=O)O)c(F)c3O2)CC1 (single isomer, unassigned) [Example 11, sodium (2S,3R)-3-cyclopropyl-3-(1′-((R or S)-1-(2-cyclopropyl-5-(trifluoromethyl)-phenyl)ethyl)-8-fluorospiro[chroman-2,4′-piperidin]-7-yl)-2-methylpropanoate] | 0.434
CC(c1cc(C(F)(F)F)ccc1C1CC1)N1CCC2(CCc3ccc([C@H](C4CC4)[C@H](C)C(=O)O)cc3O2)CC1 (single isomer, unassigned) [Example 13, sodium (2S,3R)-3-cyclo-propyl-3-(1′-((R or S)-1-(2-cyclopropyl-5-(trifluoromethyl)phenyl)ethyl)spiro[chroman-2,4′-piperidin]-7-yl)-2-methylpropanoale] | 3.6
